Results on one compound are retold here after US20070197599A1, “HYDROXYLAMINES AND DERIVATIVES AS ANTI-ANGIOGENIC AGENTS” (priority 2006, published 2007).

In one assay the test system is lens endothelial cells. The following applies: in vitro; Sasaki et al., 1998; cited from earlier work.
In assay [1] the test system is H2O2-induced angiogenesis in the CAM model. The experiment in a line: H2O2-induced angiogenesis in the chick chorioallantoic membrane (CAM) model. The format is in vivo. The following applies: for inhibition at 88 µM: Gallus gallus. On the procedure:
Neovascularization was examined by previously described methods (see references at the end of Example 5). Ten-day-old fertilized chicken eggs were incubated at 37° C. with 55% relative humidity. In the dark with the help of candling lamp and using a hypodermic needle a small hole was punctured in the shell covering the air sac. A second hole was punctured on the wider side of the egg above an avascular area of the embryonic membrane. An artificial air sac was created below the second hole by applying gentle vacuum to the first hole using a small rubber squeeze bulb. The vacuum caused the separation of chorioallantoic membrane (CAM) from the shell. An approximately 1.0 cm^2 widow was cut in the shell over the dropped CAM with the use of a mini drill. The underlying CAM was accessed through this small window.
Filter disks were punched using a small puncher from filter paper #1 (Whatman International, United Kingdom). Filter disks were soaked in 3 mg/ml cortisone acetate solution (95% ethanol and water) and air-dried under sterile condition. For inducing angiogenesis, sterile filter disks were saturated with bFGF (1 μg/ml) or other pro-angiogenesis factors and control disks were saturated with PBS without Calcium and Magnesium.
Using sterile forceps one filter/CAM was placed from the window. The window was sealed with Highland brand transparent tape. After 24 hr, 10-25 µl of test agent (inhibitor) was injected intravenously or added topically into the CAM membrane of bFGF or other pro-angiogenesis factors stimulated CAMs. • Control filter disks received PBS without Calcium and Magnesium. • After 48 hr, CAM tissue directly beneath filter disk was harvested and placed in a 35-mm Petri dish. Eight-Ten eggs/treatment group was used.
A pro-angiogenic agent (see Examples, below) was added to induce new blood vessel branches on the CAM of 10-day old embryos. Sterile disks of #1 filter paper (Whatman International, United Kingdom) were pre-treated with 3 mg/ml cortisone acetate, and air dried under sterile conditions. The disks were then suspended in PBS (Phosphate Buffered Saline) and placed on growing CAMs. Filters treated with TPH (TEMPOL-H) or TEMPOL and/or H2O2 or TPH and/or bFGF or VEGF were placed on the first day of the 3-day incubation.
Digital Images and Microscopic analysis of CAM sections: CAM sections from Petri dish were examined using SV6 stereomicroscope (Karl Zeiss) at 50× magnification. Digital images were captured using a 3-CCD color video camera system (Toshiba America, New York, N.Y.). These images were analyzed using Image-Pro Plus software (Media Cybernetics). The number of branch points in blood vessels within the circular region superimposed to the area of a filter disk was counted for each section. After incubation at 37° C. with 55% relative humidity for 3 days, the CAM tissue directly beneath each filter disk was resected from control and treated CAM samples. Tissues were washed three times with PBS. Sections were placed in a 35-mm Petri dish (Nalge Nunc; Rochester, N.Y.) and were examined under a SV6 stereomicroscope (Karl Zeiss; Thornwood, N.Y.) at 50× magnification. Digital images of CAM sections adjacent to filters were collected using a 3-CCD color video camera system (Toshiba America; New York, N.Y.) and analyzed with the Image-Pro Plus software (Media Cybernetics; Silver Spring, Md.). The number of vessel branch points contained in a circular region equal to the area of a filter disk was counted for each section. Percent inhibition data are expressed as the quotient of the experimental value minus the negative control value divided by the difference between the positive control value and the negative control value. One image was counted in each CAM preparation, and findings from eight CAM preparations were analyzed for each treatment condition. In addition, each experiment was performed three times. […]

The next assay relates to mouse V79 cells. The following applies: Mitchell et al., 2000; cited from earlier work.
The test system of assay [2] is selenite induced cataract. The following applies: mice; cited from earlier work.

Read-outs that look alike come from different tables or passages of the source.

One may read the inhibition as the percentage by which the read-out fell short of the control. Turning to `CC1(C)CC(O)CC(C)(C)N1[O]` [TEMPOL, 4-hydroxy-2,2,6,6-tetramethylpiperidine-N-oxyl radical, reference compound], the “prevention of X-ray radiation damage to lens endothelial cells” value with lens endothelial cells is on record as “prevented X-ray radiation damage”. For the same compound, the “inhibition of angiogenesis induced by super-maximal concentrations of H2O2” value in assay [1] (CAM model, Tables 1A and 1B) is “effectively inhibited”. Further, the inhibition at 88 µM in assay [1] (read-out: % Inhibition ± SD, H2O2 (88 μM, 30 ng) + 100 μg test agent) stood at 32.1 ± 14.1%; in assay [1] (read-out: % Inhibition ± SD, H2O2 (88 μM, 30 ng) + 200 μg test agent), 32.5 ± 12.1%; in assay [1] (read-out: % Inhibition ± SD, H2O2 (88 μM, 30 ng) + 400 μg test agent) it was 30.1 ± 8.7%; in assay [1] (read-out: % Inhibition ± SD, H2O2 (88 μM, 30 ng) + 800 μg test agent) it was 60.9 ± 3.2%. In addition, the “radioprotection of mouse V79 cells” value in the assay on mouse V79 cells was “concentration dependent”. Moreover, the “prevention of selenite induced cataract” value in assay [2] was “not effective”.
